From patent publication US9212171B2, “Ethynyl compounds” (Hoffmann-La Roche Inc., priority 2011, dated 2015)

Target: human mGlu5a receptor (Homo sapiens (Human), UniProt P41594)
Experiment: Intracellular Ca2+ mobilization assay (mGlu5 PAM)
Format: cell-based
Settings: for EC50: HEK-293 cells stably transfected with human mGlu5a, L-glutamate added at EC20 (typically around 80 μM); for Emax / Eff. (%): maximal response in % of the maximal stimulatory effect obtained with saturating concentrations of L-glutamate; for Emax: read-out: Eff. (%)
Experimental: A monoclonal HEK-293 cell line stably transfected with a cDNA encoding for the human mGlu5a receptor was generated; for the work with mGlu5 Positive Allosteric Modulators (PAMs), a cell line with low receptor expression levels and low constitutive receptor activity was selected to allow the differentiation of agonistic versus PAM activity. Cells were cultured according to standard protocols (Freshney, 2000) in Dulbecco's Modified Eagle Medium with high glucose supplemented with 1 mM glutamine, 10% (vol/vol) heat-inactivated bovine calf serum, Penicillin/Streptomycin, […] hygromycin and 15 μg/ml blasticidin (all cell culture reagents and antibiotics from Invitrogen, Basel, Switzerland).
About 24 hrs before an experiment, 5×10^4 cells/well were seeded in poly-D-lysine coated, black/clear-bottomed 96-well plates. The cells were loaded with 2.5 μM Fluo-4AM in loading buffer (1×HBSS, 20 mM HEPES) for 1 hr at 37° C. and washed five times with loading buffer. The cells were transferred into a Functional Drug Screening System 7000 (Hamamatsu, Paris, France), and 11 half logarithmic serial dilutions of test compound at 37° C. were added and the cells were incubated for 10-30 min. with on-line recording of fluorescence. Following this pre-incubation step, the agonist L-glutamate was added to the cells at a concentration corresponding to EC20 (typically around 80 μM) with on-line recording of fluorescence; in order to account for day-to-day variations in the responsiveness of cells, the EC20 of glutamate was determined immediately ahead of each experiment by recording of a full dose-response curve of glutamate.
Responses were measured as peak increase in fluorescence minus basal (i.e. fluorescence without addition of L-glutamate), normalized to the maximal stimulatory effect obtained with saturating concentrations of L-glutamate. Graphs were plotted with the % maximal stimulatory using XLfit, a curve fitting program that iteratively plots the data using Levenburg Marquardt algorithm. The single site competition analysis equation used was y=A+((B−A)/(1+((x/C)D))), where y is the % maximal stimulatory effect, A is the minimum y, B is the maximum y, C is the EC50, x is the log 10 of the concentration of the competing compound and D is the slope of the curve (the Hill Coefficient). From these curves the EC50 (concentration at which half maximal stimulation was achieved), the Hill coefficient as well as the maximal response in % of the maximal stimulatory effect obtained with saturating concentrations of L-glutamate were calculated.
A depression of the signal observed after addition of the EC20 concentration of L-glutamate was indicative of an inhibitory activity of the test compound.

Sequence of human mGlu5a receptor (P41594 other isoform, or with tags, fused parts or gaps): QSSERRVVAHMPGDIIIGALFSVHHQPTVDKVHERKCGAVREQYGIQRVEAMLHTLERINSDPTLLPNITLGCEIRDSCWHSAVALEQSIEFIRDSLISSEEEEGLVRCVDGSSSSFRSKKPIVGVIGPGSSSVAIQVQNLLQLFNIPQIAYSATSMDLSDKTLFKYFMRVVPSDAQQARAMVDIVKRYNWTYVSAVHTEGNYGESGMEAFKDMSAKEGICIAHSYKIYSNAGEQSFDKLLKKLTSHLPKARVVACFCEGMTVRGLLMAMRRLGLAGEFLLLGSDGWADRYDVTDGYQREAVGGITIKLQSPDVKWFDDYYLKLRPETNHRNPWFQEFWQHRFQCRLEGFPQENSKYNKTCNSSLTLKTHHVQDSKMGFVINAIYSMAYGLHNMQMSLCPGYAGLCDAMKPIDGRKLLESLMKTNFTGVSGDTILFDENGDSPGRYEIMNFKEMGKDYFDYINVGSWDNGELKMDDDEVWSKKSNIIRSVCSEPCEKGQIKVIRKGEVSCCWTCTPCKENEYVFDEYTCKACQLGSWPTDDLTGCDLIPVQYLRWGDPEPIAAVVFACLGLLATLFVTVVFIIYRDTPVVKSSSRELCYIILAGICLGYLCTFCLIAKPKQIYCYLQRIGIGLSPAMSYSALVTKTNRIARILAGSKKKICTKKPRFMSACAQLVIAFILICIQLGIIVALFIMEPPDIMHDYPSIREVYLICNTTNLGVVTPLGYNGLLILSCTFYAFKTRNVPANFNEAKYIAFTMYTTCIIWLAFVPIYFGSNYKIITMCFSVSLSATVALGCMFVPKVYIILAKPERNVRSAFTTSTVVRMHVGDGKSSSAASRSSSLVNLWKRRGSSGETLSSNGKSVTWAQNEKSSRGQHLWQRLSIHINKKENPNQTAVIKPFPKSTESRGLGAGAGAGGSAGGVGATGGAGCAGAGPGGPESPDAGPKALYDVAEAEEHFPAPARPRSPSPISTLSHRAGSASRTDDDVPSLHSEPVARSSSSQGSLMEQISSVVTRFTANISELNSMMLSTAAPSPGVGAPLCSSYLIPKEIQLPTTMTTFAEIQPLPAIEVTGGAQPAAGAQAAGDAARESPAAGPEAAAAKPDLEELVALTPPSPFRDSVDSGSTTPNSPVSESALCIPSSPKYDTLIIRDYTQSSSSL

Row | SMILES | EC50 | Emax | Eff. (%)
1 | CN1C(=O)C(c2ccc(C#Cc3cccc(F)c3)cn2)CC1(C)C (racemic) [Example 4, (RS)-3-(5-((3-Fluorophenyl)ethynyl)pyridin-2-yl)-1,5,5-trimethylpyrrolidin-2-one] | 61 nM | 103% | 
2 | CN1CCCC[C@H](c2ccc(C#Cc3ccccc3)cn2)C1=O (single isomer, unassigned) [Example 26, (R or S)-1-Methyl-3-(5-phenylethynyl-pyridin-2-yl)-azepan-2-one] | 265 nM | 69% | 
3 | CN1C(=O)C(c2ncc(C#Cc3cccc(F)c3)cn2)CCC1(C)C (racemic) [Example 17, (RS)-3-(5-((3-fluorophenyl)ethynyl)pyrimidin-2-yl)-1,6,6-trimethylpiperidin-2-one] | 132 nM | 80% | 
4 | CN1C(=O)[C@@H](c2ccc(C#Cc3ccccc3)cn2)[C@@H]2CCC[C@@H]21 (racemic) [Example 27, (3RS,3aSR,6aSR)-1-Methyl-3-(5-phenylethynyl-pyridin-2-yl)-hexahydro-cyclopenta[b]pyrrol-2-one] | 47 nM | 53% | 
5 | CN1C(=O)[C@@H](c2ccc(C#Cc3ccccc3)cn2)[C@@H]2CCC[C@@H]21 (single isomer, unassigned) [Example 28, (3R,3aS,6aS) or (3S,3aR,6aR)-1-Methyl-3-(5-phenylethynyl-pyridin-2-yl)-hexahydro-cyclopenta[b]pyrrol-2-one] | 24 nM |  | 58%
6 | CN1CCCCC(c2ccc(C#Cc3ccc(F)cc3)cn2)C1=O (racemic) [Example 23, (RS)-3-[5-(4-Fluoro-phenylethynyl)-pyridin-2-yl]-1-methyl-azepan-2-one] | 90 nM | 61% | 
7 | CN1C(=O)C(c2ccc(C#Cc3cccnc3)cn2)CC1(C)C (racemic) [Example 2, (RS)-1,5,5-Trimethyl-3-(5-(pyridin-3-ylethynyl)pyridin-2-yl)pyrrolidin-2-one] | 981 nM | 107% | 
8 | CN1CCCC[C@@H](c2ccc(C#Cc3ccccc3)cn2)C1=O (single isomer, unassigned) [Example 25, (S or R)-1-Methyl-3-(5-phenylethynyl-pyridin-2-yl)-azepan-2-one] | 35 nM | 70% | 
9 | CN1C(=O)[C@H](c2ccc(C#Cc3ccccc3)cn2)[C@@H]2CCCC[C@@H]21 (racemic) [Example 35, (3SR,6SR,7SR)-1-Methyl-3-(5-phenylethynyl-pyridin-2-yl)-octahydro-indol-2-one] | 101 nM | 60% | 
10 | CN1C(=O)C(O)(c2ccc(C#Cc3ccccc3)cn2)CC1(C)C (racemic) [Example 18, (RS)-3-Hydroxy-1,5,5-trimethyl-3-(5-(phenylethynyl)pyridin-2-yl)pyrrolidin-2-one] | 414 nM | 126% | 
11 | CN1C(=O)[C@@H](c2ccc(C#Cc3ccnc(Cl)c3)cn2)CC1(C)C (single isomer, unassigned) [Example 45, (S) or (R)-3-[5-(2-Chloro-pyridin-4-ylethynyl)-pyridin-2-yl]-1,5,5-trimethyl-pyrrolidin-2-one] | 65 nM | 36% | 
12 | CN1C(=O)C(c2ccc(C#Cc3ccc(F)cc3)cn2)CCC1(C)C (racemic) [Example 14, (RS)-3-(5-((4-Fluorophenyl)ethynyl)pyridin-2-yl)-1,6,6-trimethylpiperidin-2-one] | 212 nM | 96% | 
13 | CN1C(=O)C(c2ncc(C#Cc3ccc(F)cc3)cn2)CC1(C)C (racemic) [Example 8, (RS)-3-(5-((4-Fluorophenyl)ethynyl)pyrimidin-2-yl)-1,5,5-trimethylpyrrolidin-2-one] | 390 nM | 105% | 
14 | CN1C(=O)[C@H](c2ccc(C#Cc3cccc(F)c3)cn2)[C@H]2CCCC[C@H]21 [Example 41, (3S,6R,7R)-3-[5-(3-fluoro-phenylethynyl)-pyridin-2-yl]-1-methyl-octahydro-indol-2-one] | 68 nM | 56% | 
15 | CN1C(=O)C(c2ccc(C#Cc3ccnc(Cl)c3)cn2)CC1(C)C (racemic) [Example 44, (RS)-3-[5-(2-Chloro-pyridin-4-ylethynyl)-pyridin-2-yl]-1,5,5-trimethyl-pyrrolidin-2-one] | 88 nM | 32% | 
16 | CN1C(=O)[C@@H](c2ccc(C#Cc3cccc(F)c3)cn2)[C@@H]2CCC[C@@H]21 (single isomer, unassigned) [Example 31, (3R,3aS,6aS) or (3S,3aR,6aR)-3-[5-(3-Fluoro-phenylethynyl)-pyridin-2-yl]-1-methyl-hexahydro-cyclopenta[b]pyrrol-2-one] | 25 nM |  | 51%
17 | CN1C(=O)[C@@H](c2ccc(C#Cc3ccc(F)cc3)cn2)[C@@H]2CCCC[C@@H]21 [Example 42, (3R,6S,7S)-3-[5-(4-Fluoro-phenylethynyl)-pyridin-2-yl]-1-methyl-octahydro-indol-2-one] | 57 nM | 63% | 
